Where a SMILES comes first, the peptide text is derived from it. [ ]: non-standard residue; d: D form. The star is where a group is joined. X1 = Cc1ccc(Nc2ncc3c(n2)N(C)C(=O)N(c2cc(C(=O)*)ccc2C)C3)cn1; Aib = CC(C)(N)C(=O)O
Assays:
Test in all cases: kinase selectivity profiling
Format in all cases: biochemical
Settings in all cases: 10µM ATP, read-out: % inhibition (relative to DMSO)
BMX/ETK = biological target: T1, BMX/ETK (Homo sapiens, UniProt P51813)
T1 construct: purchased Reaction Biology Corp
T1 sequence (P51813 whole entry): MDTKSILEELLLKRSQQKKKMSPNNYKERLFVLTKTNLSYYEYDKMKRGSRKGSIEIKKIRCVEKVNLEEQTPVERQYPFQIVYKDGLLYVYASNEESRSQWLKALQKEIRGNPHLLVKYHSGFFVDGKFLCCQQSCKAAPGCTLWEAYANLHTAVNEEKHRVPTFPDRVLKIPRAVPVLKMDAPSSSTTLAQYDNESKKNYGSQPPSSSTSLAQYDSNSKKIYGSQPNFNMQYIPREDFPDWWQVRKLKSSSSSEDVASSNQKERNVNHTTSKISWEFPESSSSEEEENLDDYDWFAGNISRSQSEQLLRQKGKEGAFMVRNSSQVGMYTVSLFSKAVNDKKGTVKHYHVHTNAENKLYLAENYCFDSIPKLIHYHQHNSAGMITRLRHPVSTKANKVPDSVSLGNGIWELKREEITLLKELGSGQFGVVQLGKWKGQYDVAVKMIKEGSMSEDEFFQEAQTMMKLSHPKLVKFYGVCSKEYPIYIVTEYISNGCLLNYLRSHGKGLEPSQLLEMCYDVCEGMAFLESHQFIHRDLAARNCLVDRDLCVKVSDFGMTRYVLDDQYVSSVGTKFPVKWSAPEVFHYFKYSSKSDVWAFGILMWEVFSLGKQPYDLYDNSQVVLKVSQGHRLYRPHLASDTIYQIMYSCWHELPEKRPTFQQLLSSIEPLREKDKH
Method: (§1) Full panel kinase profiling and kinase IC50 measurement were performed by using Reaction Biology Corp. (San Diego, USA).

CDK2/cyclin E2 = biological target: T2, CDK2/cyclin E2 (Homo sapiens, UniProt P24941)
T2 construct: purchased Reaction Biology Corp
Method: as §1

CHK2 = biological target: T3, CHK2 (Homo sapiens, UniProt O96017)
T3 construct: purchased Reaction Biology Corp
Method: as §1

DAPK2 = biological target: T4, DAPK2 (Homo sapiens, UniProt Q9UIK4)
T4 construct: purchased Reaction Biology Corp
T4 sequence (Q9UIK4 whole entry): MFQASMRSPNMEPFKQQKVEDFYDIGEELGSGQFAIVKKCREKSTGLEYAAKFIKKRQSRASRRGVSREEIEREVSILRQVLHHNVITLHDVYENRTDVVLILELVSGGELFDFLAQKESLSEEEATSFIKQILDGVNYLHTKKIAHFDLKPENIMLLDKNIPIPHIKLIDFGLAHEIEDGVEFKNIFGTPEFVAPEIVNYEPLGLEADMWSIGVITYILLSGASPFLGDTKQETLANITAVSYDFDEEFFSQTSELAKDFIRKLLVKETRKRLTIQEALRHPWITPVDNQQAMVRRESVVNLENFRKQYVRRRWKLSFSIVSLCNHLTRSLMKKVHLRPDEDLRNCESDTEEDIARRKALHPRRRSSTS
Method: as §1

IRR/INSRR = biological target: T5, IRR/INSRR (Homo sapiens, UniProt P14616)
T5 construct: purchased Reaction Biology Corp
Method: as §1

JNK2 = biological target: T6, JNK2 (Homo sapiens, UniProt P45984)
T6 construct: purchased Reaction Biology Corp
T6 sequence (P45984 whole entry): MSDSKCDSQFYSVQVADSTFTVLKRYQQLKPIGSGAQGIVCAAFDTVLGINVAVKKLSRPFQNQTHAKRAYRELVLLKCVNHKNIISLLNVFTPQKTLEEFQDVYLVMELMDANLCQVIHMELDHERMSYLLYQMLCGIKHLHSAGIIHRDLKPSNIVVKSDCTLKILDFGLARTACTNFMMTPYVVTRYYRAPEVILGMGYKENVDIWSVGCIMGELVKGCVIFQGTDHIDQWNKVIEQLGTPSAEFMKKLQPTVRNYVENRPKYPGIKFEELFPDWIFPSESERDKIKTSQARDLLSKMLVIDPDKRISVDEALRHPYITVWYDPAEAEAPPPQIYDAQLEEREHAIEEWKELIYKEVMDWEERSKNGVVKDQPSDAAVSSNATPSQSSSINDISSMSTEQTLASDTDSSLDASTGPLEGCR
Method: as §1

KHS/MAP4K5 = biological target: T7, KHS/MAP4K5 (Homo sapiens, UniProt Q9Y4K4)
T7 construct: purchased Reaction Biology Corp
Method: as §1

MLK2/MAP3K10 = biological target: T8, MLK2/MAP3K10 (Homo sapiens, UniProt Q02779)
T8 construct: purchased Reaction Biology Corp
Method: as §1

PDGFRb = biological target: T9, PDGFRb (Homo sapiens, UniProt P09619)
T9 construct: purchased Reaction Biology Corp
T9 sequence (P09619 33-1106): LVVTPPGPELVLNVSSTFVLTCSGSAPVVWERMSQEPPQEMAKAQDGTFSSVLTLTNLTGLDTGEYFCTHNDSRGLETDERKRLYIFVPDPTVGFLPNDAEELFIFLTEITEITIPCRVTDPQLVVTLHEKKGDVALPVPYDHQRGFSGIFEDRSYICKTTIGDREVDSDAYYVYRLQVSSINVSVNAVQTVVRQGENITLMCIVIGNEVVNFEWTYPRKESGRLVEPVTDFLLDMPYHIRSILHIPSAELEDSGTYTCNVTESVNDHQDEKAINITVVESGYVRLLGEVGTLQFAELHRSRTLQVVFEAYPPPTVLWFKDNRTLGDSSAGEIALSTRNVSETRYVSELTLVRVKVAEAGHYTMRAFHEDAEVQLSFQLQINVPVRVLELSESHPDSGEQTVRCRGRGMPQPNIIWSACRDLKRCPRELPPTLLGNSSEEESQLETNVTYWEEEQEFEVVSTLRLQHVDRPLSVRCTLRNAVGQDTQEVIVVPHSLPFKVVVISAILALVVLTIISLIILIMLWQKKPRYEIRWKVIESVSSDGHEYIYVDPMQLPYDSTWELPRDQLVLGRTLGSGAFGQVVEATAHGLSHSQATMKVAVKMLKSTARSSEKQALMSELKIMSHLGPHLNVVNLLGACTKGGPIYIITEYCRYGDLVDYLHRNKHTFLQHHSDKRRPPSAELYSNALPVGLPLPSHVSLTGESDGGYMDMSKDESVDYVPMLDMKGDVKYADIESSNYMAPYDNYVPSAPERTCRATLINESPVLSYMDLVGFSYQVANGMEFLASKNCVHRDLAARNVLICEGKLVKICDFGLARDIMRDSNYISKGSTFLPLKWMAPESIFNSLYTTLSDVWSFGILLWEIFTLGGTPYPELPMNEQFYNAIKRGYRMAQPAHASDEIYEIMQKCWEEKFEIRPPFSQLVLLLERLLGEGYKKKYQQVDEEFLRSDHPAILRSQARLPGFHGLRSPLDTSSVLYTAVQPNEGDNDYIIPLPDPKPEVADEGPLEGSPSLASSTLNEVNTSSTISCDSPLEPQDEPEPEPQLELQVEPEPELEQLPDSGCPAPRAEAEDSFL
Method: as §1

PIM3 = biological target: T10, PIM3 (Homo sapiens, UniProt Q86V86)
T10 construct: purchased Reaction Biology Corp
Method: as §1

PLK1 = biological target: T11, PLK1 (Homo sapiens, UniProt P53350)
T11 construct: purchased Reaction Biology Corp
Method: as §1

ROS/ROS1 = biological target: T12, ROS/ROS1 (Homo sapiens, UniProt P08922)
T12 construct: purchased Reaction Biology Corp
Method: as §1

RSK4 = biological target: T13, RSK4 (Homo sapiens, UniProt Q9UK32)
T13 construct: purchased Reaction Biology Corp
Method: as §1

TAK1 = biological target: T14, TAK1 (Homo sapiens, UniProt O43318)
T14 construct: purchased Reaction Biology Corp
T14 sequence (O43318 1-303 limits assumed): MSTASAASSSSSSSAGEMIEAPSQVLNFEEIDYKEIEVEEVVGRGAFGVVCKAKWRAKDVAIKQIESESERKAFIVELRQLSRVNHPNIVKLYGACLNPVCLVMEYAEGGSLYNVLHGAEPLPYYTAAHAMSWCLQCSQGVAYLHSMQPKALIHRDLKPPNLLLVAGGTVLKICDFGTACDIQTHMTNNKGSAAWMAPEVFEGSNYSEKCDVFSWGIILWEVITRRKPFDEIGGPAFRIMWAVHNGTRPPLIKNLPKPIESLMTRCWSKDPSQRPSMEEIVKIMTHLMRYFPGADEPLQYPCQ
Method: as §1

TESK2 = biological target: T15, TESK2 (Homo sapiens, UniProt Q96S53)
T15 construct: purchased Reaction Biology Corp
T15 sequence (Q96S53 whole entry): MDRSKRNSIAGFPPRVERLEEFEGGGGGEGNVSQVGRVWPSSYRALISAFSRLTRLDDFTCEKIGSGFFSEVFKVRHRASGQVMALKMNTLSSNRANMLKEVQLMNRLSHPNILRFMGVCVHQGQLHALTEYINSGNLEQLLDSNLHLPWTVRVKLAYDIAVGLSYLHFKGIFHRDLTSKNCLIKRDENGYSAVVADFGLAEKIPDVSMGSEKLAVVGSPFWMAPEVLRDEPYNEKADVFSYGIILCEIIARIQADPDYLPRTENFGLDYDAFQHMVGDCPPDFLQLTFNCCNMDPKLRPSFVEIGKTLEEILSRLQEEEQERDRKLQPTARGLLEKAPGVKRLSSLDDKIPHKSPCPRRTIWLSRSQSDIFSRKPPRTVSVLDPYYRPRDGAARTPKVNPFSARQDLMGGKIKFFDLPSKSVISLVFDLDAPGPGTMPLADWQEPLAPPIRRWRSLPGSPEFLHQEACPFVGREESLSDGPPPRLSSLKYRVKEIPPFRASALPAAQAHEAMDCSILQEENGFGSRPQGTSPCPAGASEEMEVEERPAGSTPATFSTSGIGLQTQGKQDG
Method: as §1

TRKC = biological target: T16, TRKC (Homo sapiens, UniProt Q16288)
T16 construct: purchased Reaction Biology Corp
Method: as §1

ZAP70 = biological target: T17, ZAP70 (Homo sapiens, UniProt P43403)
T17 construct: purchased Reaction Biology Corp
Method: as §1

c-MER = biological target: T18, c-MER (Homo sapiens, UniProt Q12866)
T18 construct: purchased Reaction Biology Corp
T18 sequence (Q12866 21-999): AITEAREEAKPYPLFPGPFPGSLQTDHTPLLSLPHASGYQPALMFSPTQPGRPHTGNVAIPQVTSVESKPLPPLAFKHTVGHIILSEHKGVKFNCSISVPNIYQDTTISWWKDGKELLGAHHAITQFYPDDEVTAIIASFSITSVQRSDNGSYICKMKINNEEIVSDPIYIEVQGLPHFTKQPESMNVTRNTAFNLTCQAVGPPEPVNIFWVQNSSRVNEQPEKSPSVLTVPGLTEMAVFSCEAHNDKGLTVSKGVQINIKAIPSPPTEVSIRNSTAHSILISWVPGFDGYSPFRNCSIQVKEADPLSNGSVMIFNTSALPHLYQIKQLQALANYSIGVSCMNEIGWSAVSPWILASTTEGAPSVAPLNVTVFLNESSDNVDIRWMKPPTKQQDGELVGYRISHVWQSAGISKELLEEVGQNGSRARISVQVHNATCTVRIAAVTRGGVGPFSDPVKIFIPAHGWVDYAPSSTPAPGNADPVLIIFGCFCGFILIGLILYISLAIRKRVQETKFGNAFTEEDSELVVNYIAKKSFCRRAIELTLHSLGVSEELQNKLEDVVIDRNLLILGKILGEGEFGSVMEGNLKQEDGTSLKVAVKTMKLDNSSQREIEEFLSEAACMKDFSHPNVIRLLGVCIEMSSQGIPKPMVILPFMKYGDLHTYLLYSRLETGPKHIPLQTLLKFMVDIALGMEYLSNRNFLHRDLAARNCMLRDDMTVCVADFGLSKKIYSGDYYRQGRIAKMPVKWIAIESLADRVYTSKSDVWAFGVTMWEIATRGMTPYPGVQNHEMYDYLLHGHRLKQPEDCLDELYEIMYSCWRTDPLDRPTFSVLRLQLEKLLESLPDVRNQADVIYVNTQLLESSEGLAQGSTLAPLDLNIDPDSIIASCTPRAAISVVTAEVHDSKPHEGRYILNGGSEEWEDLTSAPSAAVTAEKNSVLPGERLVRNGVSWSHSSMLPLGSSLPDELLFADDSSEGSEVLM
Method: as §1

c-Src = biological target: T19, c-Src (Homo sapiens, UniProt P12931)
T19 construct: purchased Reaction Biology Corp
Method: as §1

With `Cc1ccc(Nc2ncc3c(n2)N(C)C(=O)N(c2cc(C(=O)N[C@H](C(=O)N4CCC[C@H]4C(=O)NC(C)(C)C(=O)N[C@@H](CC(C)C)C(=O)N(C)C)C(C)C)ccc2C)C3)cn1` [7a, (S)-N-(1-(((S)-1-(dimethylamino)-4-methyl-1-oxopentan-2-yl)amino)-2-methyl-1-oxopropan-2-yl)-1-((4-methyl-3-(1-methyl-7-((6-methylpyridin-3-yl)amino)-2-oxo-1,4-dihydropyrimido[4,5-d]pyrimidin-3(2H)-yl)benzoyl)-L-valyl)pyrrolidine-2-carboxamide] (X1-VP[Aib]L-NMe2) the inhibition at 1 µM (BMX/ETK) was 73%, the inhibition at 1 µM (CDK2/cyclin E2) was 0% and the inhibition at 1 µM (CHK2) was 4%. For the same compound, the inhibition at 1 µM (DAPK2) was 1%, the inhibition at 1 µM (IRR/INSRR) was 5% and the inhibition at 1 µM (JNK2) was 2%. The inhibition at 1 µM (KHS/MAP4K5) was 23%, the inhibition at 1 µM (MLK2/MAP3K10) was 16% and the inhibition at 1 µM (PDGFRb) was 48%. For the same compound, the inhibition at 1 µM (PIM3) was 0%, the inhibition at 1 µM (PLK1) was 0% and the inhibition at 1 µM (ROS/ROS1) was 9%. For the same compound, the inhibition at 1 µM (RSK4) was 0%, the inhibition at 1 µM (TAK1) was 4% and the inhibition at 1 µM (TESK2) was 4%. It also gave an inhibition at 1 µM (TRKC) of 21%, an inhibition at 1 µM (ZAP70) of 0% and an inhibition at 1 µM (c-MER) of 1%. The inhibition at 1 µM (c-Src) was 64%.
